The record followed here is patent US8501794B2, “Compounds as cannabinoid receptor ligands” (priority 2007, dated 2013).

One assay deals with T1, human CB2 receptors (Homo sapiens, UniProt P34972).
T1 construct: expressed in transfected cells; host or cells: HEK293
Put plainly: human CB2 radioligand binding assay ([3H]CP-55,940 competition).

Assay [1] has as its target T2, rat CB2 (Rattus norvegicus, UniProt Q9QZN9).
T2 sequence (Q9QZN9 1-360): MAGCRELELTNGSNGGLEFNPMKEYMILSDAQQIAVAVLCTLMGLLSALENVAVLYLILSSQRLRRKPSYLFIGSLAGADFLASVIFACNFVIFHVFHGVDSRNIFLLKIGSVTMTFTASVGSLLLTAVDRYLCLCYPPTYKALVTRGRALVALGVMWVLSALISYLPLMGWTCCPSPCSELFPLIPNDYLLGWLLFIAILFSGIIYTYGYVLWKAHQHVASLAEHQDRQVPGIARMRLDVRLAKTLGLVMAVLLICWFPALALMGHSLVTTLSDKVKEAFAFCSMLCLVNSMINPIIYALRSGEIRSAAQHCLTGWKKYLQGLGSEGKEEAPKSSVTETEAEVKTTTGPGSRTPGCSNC
Put plainly: rat CB2 cyclase functional assay (HitHunter cAMP, HEK cells). As to conditions: forskolin 18 μM. Type of assay: cell-based. More on the design: expressed in transfected cells; host or cells: HEK.

In assay [2] the target is T2, rat CB2. Put plainly: rat CB2 radioligand binding assay ([3H]CP-55,940 competition). Further details: expressed in transfected cells; host or cells: HEK293.

As a reminder, the Ki is a measure of affinity in units of concentration, obtained from inhibition or displacement. The low end stands for a stronger hold on the target, the high end for a looser hold on the target. For orientation: EC50 means the midpoint of the concentration-response curve.

T1 sequence (P34972 whole entry): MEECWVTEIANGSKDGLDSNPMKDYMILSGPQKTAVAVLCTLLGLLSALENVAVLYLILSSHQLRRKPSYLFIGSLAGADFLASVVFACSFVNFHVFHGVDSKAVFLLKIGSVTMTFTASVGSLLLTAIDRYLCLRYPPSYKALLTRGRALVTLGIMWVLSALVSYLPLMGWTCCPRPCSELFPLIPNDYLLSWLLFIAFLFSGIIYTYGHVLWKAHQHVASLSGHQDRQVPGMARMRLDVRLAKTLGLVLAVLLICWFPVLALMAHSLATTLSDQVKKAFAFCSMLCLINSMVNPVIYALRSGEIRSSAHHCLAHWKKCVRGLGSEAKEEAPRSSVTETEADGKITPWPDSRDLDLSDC

With `CCCCc1cn(C(C)(C)C)s/c1=N\C(=O)C1(C)CCC(C(=O)OC)C1(C)C` (racemic) [Example 92, Methyl 3-({[(5Z)-4-butyl-2-tert-butylisothiazol-5(2H)-ylidene]amino}carbonyl)-2,2,3-trimethylcyclopentanecarboxylate], the Ki on human CB2 receptors amounted to 0.2 nM; on rat CB2 [2], 0.25 nM. This compound came in with an EC50 on rat CB2 [1] of 0.45 nM.

Consider `CCCCc1cn(C(C)(C)C)s/c1=N\C(=O)c1cc(Cl)ccc1OC` [Example 1, N-[(5Z)-4-butyl-2-tert-butylisothiazol-5(2H)-ylidene]-5-chloro-2-methoxybenzamide], for which the Ki is 16 nM at human CB2 receptors and 1.5 nM on rat CB2 [2]. The half-maximal effective concentration (EC50) at rat CB2 [1] was 0.72 nM.

Turning to `C=CCc1cn(C(C)(C)C)s/c1=N\C(=O)c1cc(Cl)ccc1OC` [Example 6, N-[(5Z)-4-allyl-2-tert-butylisothiazol-5(2H)-ylidene]-5-chloro-2-methoxybenzamide], the inhibitory constant (Ki) on human CB2 receptors came to 210 nM; at rat CB2 [2] it was 16 nM. The same compound gave an EC50 on rat CB2 [1] of 2.4 nM.

For the compound `COc1ccc(Cl)cc1C(=O)/N=c1\sn(C(C)(C)C)cc1CC1CC(C)=NO1` (stereo not shown) [Example 7], the inhibitory constant (Ki) at human CB2 receptors turned out to be 370 nM; on rat CB2 [2] it was 8.8 nM. Further, the response on rat CB2 [1] was half-maximal at 2.7 nM (EC50).

Turning to `COc1ccc(Cl)cc1C(=O)/N=c1\sn(C(C)(C)C)cc1CC1CC1` [Example 8, N-[(5Z)-2-tert-butyl-4-(cyclopropylmethyl)isothiazol-5(2H)-ylidene]-5-chloro-2-methoxybenzamide], the Ki was 4 nM on human CB2 receptors and 1.1 nM on rat CB2 [2]. Further, at rat CB2 [1], the midpoint of the response, the EC50, lay at 1 nM.

As to `COc1ccc(Cl)cc1C(=O)/N=c1\sn(C(C)(C)C)cc1CCN=[N+]=[N-]` [Example 14, N-[(5Z)-4-(2-azidoethyl)-2-tert-butylisothiazol-5(2H)-ylidene]-5-chloro-2-methoxybenzamide], the Ki at human CB2 receptors was 26 nM; at rat CB2 [2], 2.4 nM. On rat CB2 [1], this compound registered a concentration for a half-maximal effect (EC50) of 0.71 nM.

As to `CON=CCCc1cn(C(C)(C)C)s/c1=N\C(=O)c1cc(Cl)ccc1OC` [Example 15, N-[(5Z)-2-tert-butyl-4-[3-(methoxyimino)propyl]isothiazol-5(2H)-ylidene]-5-chloro-2-methoxybenzamide], the inhibition constant (Ki) at human CB2 receptors came out at 170 nM; at rat CB2 [2] it was 15 nM. The compound also came in with an EC50 on rat CB2 [1] of 1.1 nM.

For `COc1ccc(Cl)cc1C(=O)/N=c1\sn(C(C)(C)C)cc1CCC(C)O` (stereo not shown) [Example 18, N-[(5Z)-2-tert-butyl-4-(3-hydroxybutyl)isothiazol-5(2H)-ylidene]-5-chloro-2-methoxybenzamide], the Ki at human CB2 receptors is 86 nM; at rat CB2 [2], 4.3 nM. At rat CB2 [1], the EC50 is 2.7 nM.

For `COc1ccc(Cl)cc1C(=O)/N=c1\sn(C(C)(C)C)cc1CCC#N` [Example 19, N-[(5Z)-2-tert-butyl-4-(2-cyanoethyl)isothiazol-5(2H)-ylidene]-5-chloro-2-methoxybenzamide], the values for the inhibitory constant (Ki) on human CB2 receptors and at rat CB2 [2] were 44 nM and 7.1 nM, respectively. At rat CB2 [1], the EC50 is 0.57 nM.

Turning to `COc1ccc(Cl)cc1C(=O)/N=c1\sn(C(C)(C)C)cc1CC1OCCO1` [Example 22, N-[(5Z)-2-tert-butyl-4-(1,3-dioxolan-2-ylmethyl)isothiazol-5(2H)-ylidene]-5-chloro-2-methoxybenzamide], the inhibitory constant (Ki) on human CB2 receptors was found to be 67 nM; at rat CB2 [2], 6.2 nM. At rat CB2 [1], this compound gave an EC50 of 0.24 nM.

At rat CB2 [1], `COC(=O)CCCc1cn(C(C)(C)C)s/c1=N\C(=O)c1cc(C#N)ccc1OC` [Example 46, Methyl 4-{(5Z)-2-tert-butyl-5-[(5-cyano-2-methoxybenzoyl)imino]-2,5-dihydroisothiazol-4-yl}butanoate] gave an EC50 of 0.56 nM. Moreover, affinity on rat CB2 [2] was put at a Ki of 17 nM.

As for `CCCCc1cn(C(C)(C)C)s/c1=N\C(=O)c1cc(S(C)(=O)=O)ccc1OC` [Example 48, N-[(5Z)-4-butyl-2-tert-butylisothiazol-5(2H)-ylidene]-2-methoxy-5-(methylsulfonyl)benzamide], a half-maximal response on rat CB2 [1] (EC50) required 0.56 nM. On rat CB2 [2], this compound gave a Ki of 22 nM.

`CCCCc1cn(C(C)(C)C)s/c1=N\C(=O)[C@]1(C)CC[C@H](C(=O)NCC)C1(C)C` [Example 201, (1R,3S)—N^1-[(5Z)-4-butyl-2-tert-butylisothiazol-5(2H)-ylidene]-N^3-ethyl-1,2,2-trimethylcyclopentane-1,3-dicarboxamide] came in with an inhibitory constant (Ki) on human CB2 receptors of 180 nM. Besides, the EC50 at rat CB2 [1] was found to be 3.5 nM.

`CCCCc1cn(C(C)(C)C)s/c1=N\C(=O)[C@]1(C)CC[C@H](C(=O)NCCO)C1(C)C` [Example 203, (1R,3S)—N^1-[(5Z)-4-butyl-2-tert-butylisothiazol-5(2H)-ylidene]-N^3-(2-hydroxyethyl)-1,2,2-trimethylcyclopentane-1,3-dicarboxamide] yielded an inhibition constant Ki on human CB2 receptors of 70 nM. For the same compound, it took 3.9 nM to reach a half-maximal effect at rat CB2 [1] (EC50).

On human CB2 receptors, `CCCCc1cn(C(C)(C)C)s/c1=N\C(=O)[C@@H]1CC[C@](C)(C(=O)OC)C1(C)C` [Example 204, Methyl (1S,3R)-3-({[(5Z)-4-butyl-2-tert-butylisothiazol-5(2H)-ylidene]amino}carbonyl)-1,2,2-trimethylcyclopentanecarboxylate] registered an inhibitory constant (Ki) of 0.6 nM. The compound also had a 50% effective concentration (EC50) on rat CB2 [1] of 0.34 nM.

`CCCCc1cn(C(C)(C)C)s/c1=N\C(=O)[C@@H]1CC[C@](C)(C(=O)O)C1(C)C` [Example 205, (1S,3R)-3-({[(5Z)-4-butyl-2-tert-butylisothiazol-5(2H)-ylidene]amino}carbonyl)-1,2,2-trimethylcyclopentanecarboxylic acid] yielded a Ki at human CB2 receptors of 21 nM. The compound further yielded an EC50 on rat CB2 [1] of 11.7 nM.

As for `CCCCc1cn(C(C)(C)C)s/c1=N\C(=O)c1cc(C(F)(F)F)ccc1OCC(C)(C)O` [Example 262, N-[(5Z)-4-butyl-2-tert-butylisothiazol-5(2H)-ylidene]-2-(2-hydroxy-2-methylpropoxy)-5-(trifluoromethyl)benzamide], the inhibition constant Ki on human CB2 receptors was 6 nM; on rat CB2 [2], 4.4 nM.

`CCCCc1cn(C(C)(C)C)s/c1=N\C(=O)[C@]1(C)CC[C@H](NC(=O)N2CCC2)C1(C)C` [Example 263, N-[(1S,3R)-3-({[(5Z)-4-butyl-2-tert-butylisothiazol-5(2H)-ylidene]amino}carbonyl)-2,2,3-trimethylcyclopentyl]azetidine-1-carboxamide]: the results for the inhibition constant (Ki) at human CB2 receptors and at rat CB2 [2] were 33 nM and 77 nM, respectively.

For the compound `CCCCc1cn(C(C)(C)C)s/c1=N\C(=O)[C@]1(C)CC[C@H](NC(=O)N(C)c2ccccc2)C1(C)C` [Example 264, (1R,3S)—N-[(5Z)-4-butyl-2-tert-butylisothiazol-5(2H)-ylidene]-1,2,2-trimethyl-3-({[methyl(phenyl)amino]carbonyl}amino)cyclopentanecarboxamide], the inhibition constant (Ki) came out at 11 nM on human CB2 receptors and 33 nM at rat CB2 [2].

`CCCCc1cn(C(C)(C)C)s/c1=N\C(=O)C12CC3CC(C1)CC(C(=O)OC)(C3)C2` [Example 265, Methyl 3-({[(5Z)-4-butyl-2-tert-butylisothiazol-5(2H)-ylidene]amino}carbonyl)adamantane-1-carboxylate]: the Ki at human CB2 receptors stood at 0.32 nM; on rat CB2 [2], 0.07 nM.

Regarding `CCCCc1cn(C(C)(C)C)s/c1=N\C(=O)c1cc(C(F)(F)F)ccc1ONC(C)(C)C` [Example 267, 2-[(tert-butylamino)oxy]-N-[(5Z)-4-butyl-2-tert-butylisothiazol-5(2H)-ylidene]-5-(trifluoromethyl)benzamide], the Ki at human CB2 receptors is 19 nM; at rat CB2 [2] it was 1 nM.
